Results: US20150246025A1, “2-PHENYL-5-HETEROCYCLYL-TETRAHYDRO-2H-PYRAN-3-AMINE COMPOUNDS FOR USE IN THE TREATMENT OF DIABETES AND ITS ASSOCIATED DISORDERS” (CADILA HEALTHCARE LIMITED, priority 2012, published 2015)

Tests used:
DPP-IV enzyme = target: T1, DPP-IV enzyme (Homo sapiens, UniProt P27487); assay: In vitro DPP-IV inhibitory activity using enzymatic (fluorescence-based) assay; assay type: biochemical; conditions: soluble human DPP-IV, H-Gly-Pro-AMC 200 μM, pH 7.8, 25° C., 30 min; read-out: % In-vitro DPPIV Inhibition IC50
T1 construct: soluble human proteins (DPP-IV enzyme) produced in a baculovirus expression system; made in house; host or cells: baculovirus expression system (Life Technologies)
T1 sequence (P27487 39-766 limits assumed): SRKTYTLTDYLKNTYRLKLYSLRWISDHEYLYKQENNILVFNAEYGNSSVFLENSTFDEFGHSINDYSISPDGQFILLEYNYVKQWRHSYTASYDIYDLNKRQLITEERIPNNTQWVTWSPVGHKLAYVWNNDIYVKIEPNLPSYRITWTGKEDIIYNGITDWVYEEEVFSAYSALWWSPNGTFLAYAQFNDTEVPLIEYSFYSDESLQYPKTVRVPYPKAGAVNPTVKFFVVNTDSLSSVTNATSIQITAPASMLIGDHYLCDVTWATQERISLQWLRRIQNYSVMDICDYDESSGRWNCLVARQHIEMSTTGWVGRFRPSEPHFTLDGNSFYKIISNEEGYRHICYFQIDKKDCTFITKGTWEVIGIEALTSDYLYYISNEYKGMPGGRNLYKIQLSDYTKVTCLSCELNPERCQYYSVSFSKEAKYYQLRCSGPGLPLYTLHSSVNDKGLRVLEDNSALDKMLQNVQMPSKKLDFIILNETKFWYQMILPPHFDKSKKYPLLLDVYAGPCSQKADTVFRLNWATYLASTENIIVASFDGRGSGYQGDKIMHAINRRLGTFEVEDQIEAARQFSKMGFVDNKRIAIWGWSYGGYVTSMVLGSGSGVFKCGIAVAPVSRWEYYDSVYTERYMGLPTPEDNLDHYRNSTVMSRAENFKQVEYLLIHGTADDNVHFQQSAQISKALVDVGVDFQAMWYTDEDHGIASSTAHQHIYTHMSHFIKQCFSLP
Procedure: In Vitro DPP-IV Inhibitory Activity Using Enzymatic Assay:
In vitro enzyme (DPP-IV) inhibitory activity was determined using fluorescence-based assay (Anal. Biochem., 200, 352, 1992). The Gly-Pro-AMC was used as a substrate (which is cleaved by the enzymes to release the fluorescent AMC) and soluble human proteins (DPP-IV enzyme) produced in a baculovirus expression system (Life Technologies) was used as the enzyme source. The H-Gly-Pro-AMC (200 μM) was incubated with DPP-IV enzyme in the presence of various concentrations (30 & 100 nM) of test compounds. Reaction was carried out at pH 7.8 (HEPES buffer 25 mM containing 1.0% BSA, 140 mM NaCl, 16 mM MgCl2, 2.8% DMSO) in a total volume of 100 μl at 25° C. for 30 min., in the dark. Reaction was terminated with acetic acid (25 μl of 25% solution). Activity (fluorescence) was measured using Spectra Max fluorometer (Molecular Devices, Sunnyvale Calif.) by exciting at 380 nm and emission at 460 nm.

C57BL/6J mice = assay: In vivo antihyperglycaemic/antidiabetic activity (OGTT), acute single dose 120-min time-course; conditions: Mus musculus, 2 h; male C57BL/6J mice, acute single dose 0,3 mg/kg po, 120-min time-course, n = 6, Mean ± SEM; read-out: In vivo OGTT C57; % Glucose change
Procedure: Acute single dose 120-min time-course experiments were carried out in male C57BL/6J mice, age 8-12 weeks, bred in-house. Animals were housed in groups of 6 animals per cage, for a week, in order to habituate them to vivarium conditions (25±4° C., 60-65% relative humidity, 12: 12 h light: dark cycle, with lights on at 7.30 am). All the animal experiments were carried out according to the internationally valid guidelines following approval by the ‘Zydus Research Center animal ethical committee’.
The in-vivo glucose lowering properties of the test compounds were evaluated in C57BL/6J (mild hyperglycemic) animal models as described below. Two days prior to the study, the animals were randomized and divided into groups (n=6), based upon their fed glucose levels. On the day of experiment, food was withdrawn from all the cages, water was given ad-libitum and were kept for overnight fasting. Vehicle (normal saline)/test compounds were administered orally, on a body weight basis. Soon after the 0 min. blood collection from each animal, the subsequent blood collections were done at 30, 60 and 120 or upto 240 min., via retro-orbital route, under light ether anesthesia (Diabetes Obesity Metabolism, 7, 307, 2005; Diabetes, 52, 751, 2003).
Blood samples were centrifuged and the separated serum was immediately subjected for the glucose estimation. Serum for insulin estimation was stored at −70° C. until used for the insulin estimation. The glucose estimation was carried out with DPEC-GOD/POD method (Ranbaxy Fine Chemicals Limited, Diagnostic division, India), using Spectramax-190, in 96-microwell plate reader (Molecular devices Corporation, Sunnyvale, Calif.). […] The AUC and BCAUC obtained from graphs were analyzed for one way ANOVA, followed by Dunnett's post test, using Graph Pad prism software.

IC50 (DPP-IV enzyme) | SMILES | change in vivo at 0.3 mg/kg (C57BL/6J mice)
< 100 nM | N[C@H]1C[C@@H](N2CC3C(=O)N(Cc4ccccc4)C(=O)C3C2)CO[C@@H]1c1cc(F)ccc1F (stereo partly drawn) [Compound 11, 5-((3R,5S,6R)-5-amino-6-(2,5-difluorophenyl)tetrahydro-2H-pyran-3-yl)-2-benzyltetrahydropyrrolo[3,4-c]pyrrole-1,3(2H,3aH)-dione] | -25.6 ± 3.2%
< 100 nM | CS(=O)(=O)N1CCC2CN([C@H]3CO[C@H](c4cc(F)ccc4F)[C@@H](N)C3)CC2C1 (stereo partly drawn) [Compound 12, (2R,3S,5R)-2-(2,5-difluorophenyl)-5-(5-(methylsulfonyl)hexahydro-1H-pyrrolo[3,4-c]pyridin-2(3H)-yl)tetrahydro-2H-pyran-3-amine] | -9.8 ± 1.5%
< 10 nM | CS(=O)(=O)N1CC2CCN([C@H]3CO[C@H](c4cc(F)ccc4F)[C@@H](N)C3)CC2C1 (stereo partly drawn) [Compound 13, (2R,3S,5R)-2-(2,5-difluorophenyl)-5-(2-(methylsulfonyl)hexahydro-1H-pyrrolo[3,4-c]pyridin-5(6H)-yl)tetrahydro-2H-pyran-3-amine] | -26.4 ± 1.6%
< 10 nM | Cc1ccc(S(=O)(=O)N=S(C)(=O)N2CC3=C(CN([C@H]4CO[C@H](c5cc(F)ccc5F)[C@@H](N)C4)C3)C2)cc1 (stereo partly drawn) [Compound 49, (2R,3S,5R)-2-(2,5-difluorophenyl)-5-(5-(N-(4-methylbenzenesulfonyl)-S-methylsulfonimidoyl)-5,6-dihydropyrrolo[3,4-c]pyrrol-2(1H,3H,4H)-yl)tetrahydro-2H-pyran-3-amine] | 

The next lines start with the compound.

SMILES | IC50 (DPP-IV enzyme) | change in vivo at 0.3 mg/kg (C57BL/6J mice)
CS(=O)(=O)N1CCC2(CCN([C@H]3CO[C@H](c4cc(F)ccc4F)[C@@H](N)C3)C2)C1 (stereo partly drawn) [Compound 2, (2R,3S,5R)-2-(2,5-difluorophenyl)-5-(7-(methylsulfonyl)-2,7-diazaspiro[4.4]-nonan-2-yl)tetrahydro-2H-pyran-3-amine] | < 10 nM | -25.7 ± 1.8%
N[C@H]1C[C@@H](N2CC3CNCC3C2)CO[C@@H]1c1cc(F)ccc1F (stereo partly drawn) [Compound 4, (2R,3S,5R)-2-(2,5-difluorophenyl)-5-(hexahydropyrrolo[3,4-c]pyrrol-2(1H)-yl)tetrahydro-2H-pyran-3-amine] | < 100 nM | -16.5 ± 3.8%
N[C@H]1C[C@@H](N2CC3CN(S(=O)(=O)C(F)(F)F)CC3C2)CO[C@@H]1c1cc(F)ccc1F (stereo partly drawn) [Compound 5, (2R,3S,5R)-2-(2,5-difluorophenyl)-5-(5-((trifluoromethyl)sulfonyl)hexahydropyrrolo[3,4-c]pyrrol-2(1H)-yl)tetrahydro-2H-pyran-3-amine] | < 100 nM | -7.6 ± 1.3%
N[C@H]1C[C@@H](N2CC3CN(S(=O)(=O)c4ccccc4)CC3C2)CO[C@@H]1c1cc(F)ccc1F (stereo partly drawn) [Compound 6, (2R,3S,5R)-2-(2,5-difluorophenyl)-5-(5-(phenylsulfonyl)hexahydropyrrolo[3,4-c]pyrrol-2(1H)-yl)tetrahydro-2H-pyran-3-amine] | < 100 nM | -7.3 ± 1.6%
CN(C)S(=O)(=O)N1CC2CN([C@H]3CO[C@H](c4cc(F)ccc4F)[C@@H](N)C3)CC2C1 (stereo partly drawn) [Compound 7, 5-((3R,5S,6R)-5-amino-6-(2,5-difluorophenyl)tetrahydro-2H-pyran-3-yl)-N,N-dimethylhexahydropyrrolo[3,4-c]pyrrole-2(1H)-sulfonamide] | < 10 nM | -7.9 ± 1.2%
CN(C)S(=O)(=O)N1CC2=C(CN([C@H]3CO[C@H](c4cc(F)ccc4F)[C@@H](N)C3)C2)C1 [Compound 9, 5-((3R,5S,6R)-5-amino-6-(2,5-difluorophenyl)tetrahydro-2H-pyran-3-yl)-N,N-dimethyl-3,4,5,6-tetrahydropyrrolo[3,4-c]pyrrole-2(1H)-sulfonamide] | < 10 nM | -34.7 ± 4.4%
N[C@H]1C[C@@H](N2CC3C(=O)N(C4CC4)C(=O)C3C2)CO[C@@H]1c1cc(F)ccc1F (stereo partly drawn) [Compound 10, 5-((3R,5S,6R)-5-amino-6-(2,5-difluorophenyl)tetrahydro-2H-pyran-3-yl)-2-cyclopropyltetrahydropyrrolo[3,4-c]pyrrole-1,3(2H,3aH)-dione] | < 100 nM | -12.5 ± 1.3%
